Measurements as given in the supplement of paper PMC10307832.

Key:
Assay in all cases: relative viability (nuclei count vs DMSO), 5 days (fraction); higher = more cells survive
Carfilzomib + Alpelisib = compound: CC(C)C[C@H](NC(=O)[C@H](CCc1ccccc1)NC(=O)CN1CCOCC1)C(=O)N[C@@H](Cc1ccccc1)C(=O)N[C@@H](CC(C)C)C(=O)[C@@]1(C)CO1 [Carfilzomib] + Cc1nc(NC(=O)N2CCC[C@H]2C(N)=O)sc1-c1ccnc(C(C)(C)C(F)(F)F)c1 [Alpelisib] (partner 2 µM)
Method in brief: (§1)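 Nuclei were stained with Hoechst during a one-step fixation (final 0.05% Triton X-100, 1% formaldehyde, 1 ug/ml Hoechst) carried out 5 days after dosing, then counted on 4× images. The cells, lung cancer lines in 1536-well plates, had been dosed by pin tool the day after seeding with one drug alone or a fixed anchor-drug dose plus five library-drug doses (not always all listed) in √10 steps. Relative viability is the nuclei count in treated wells divided by that in vehicle wells, and each value is the median of duplicate plates.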

Crizotinib + Tozasertib = compound: C[C@@H](Oc1cc(-c2cnn(C3CCNCC3)c2)cnc1N)c1c(Cl)ccc(F)c1Cl [Crizotinib] + Cc1cc(Nc2cc(N3CCN(C)CC3)nc(Sc3ccc(NC(=O)C4CC4)cc3)n2)n[nH]1 [Tozasertib] (partner 0.1 µM)
Method in brief: as §1

Crizotinib + Olaparib = compound: C[C@@H](Oc1cc(-c2cnn(C3CCNCC3)c2)cnc1N)c1c(Cl)ccc(F)c1Cl [Crizotinib] + O=C(c1cc(Cc2n[nH]c(=O)c3ccccc23)ccc1F)N1CCN(C(=O)C2CC2)CC1 [Olaparib] (partner 8 µM)
Method in brief: as §1

Olaparib + Crizotinib = compound: O=C(c1cc(Cc2n[nH]c(=O)c3ccccc23)ccc1F)N1CCN(C(=O)C2CC2)CC1 [Olaparib] + C[C@@H](Oc1cc(-c2cnn(C3CCNCC3)c2)cnc1N)c1c(Cl)ccc(F)c1Cl [Crizotinib] (partner 1 µM)
Method in brief: as §1

Cell Line	relative viability (Carfilzomib + Alpelisib; first compound 0.001 µM)	relative viability (Carfilzomib + Alpelisib; first compound 0.003162 µM)	relative viability (Carfilzomib + Alpelisib; first compound 0.01 µM)	relative viability (Carfilzomib + Alpelisib; first compound 0.03162 µM)	relative viability (Carfilzomib + Alpelisib; first compound 0.1 µM)	relative viability (Crizotinib + Tozasertib; first compound 0.01 µM)	relative viability (Crizotinib + Tozasertib; first compound 0.03162 µM)	relative viability (Crizotinib + Tozasertib; first compound 0.1 µM)	relative viability (Crizotinib + Tozasertib; first compound 0.3162 µM)	relative viability (Crizotinib + Tozasertib; first compound 1 µM)	relative viability (Crizotinib + Olaparib; first compound 0.01 µM)	relative viability (Crizotinib + Olaparib; first compound 0.03162 µM)	relative viability (Crizotinib + Olaparib; first compound 0.1 µM)	relative viability (Crizotinib + Olaparib; first compound 0.3162 µM)	relative viability (Crizotinib + Olaparib; first compound 1 µM)	relative viability (Olaparib + Crizotinib; first compound 0.08 µM)	relative viability (Olaparib + Crizotinib; first compound 0.253 µM)	relative viability (Olaparib + Crizotinib; first compound 2.53 µM)	relative viability (Olaparib + Crizotinib; first compound 8 µM)
NCI-H661	0.778	0.93	0.495	0.615	0.181	0.336	0.337	0.337	0.369	0.355	0.703	0.761	0.741	0.81	0.737	1.06	0.969	0.944	0.849
NCI-H650	1.09	1.3	1.21	1.09	0.164	0.772	0.726	0.721	0.616	0.809	0.481	0.465	0.396	–	0.346	0.899	0.713	0.623	0.615
RERF-LC-KJ	0.847	0.873	0.842	0.645	0.227	0.455	0.516	0.49	0.477	0.527	0.843	0.887	0.928	0.919	0.802	0.811	0.775	0.911	0.755
SK-LU-1	1.05	1	0.712	0.182	0.143	0.287	0.373	0.328	0.334	0.27	0.504	0.438	0.451	0.477	0.405	1.15	0.774	0.801	0.621
NCI-H1792	0.648	0.742	0.674	0.756	0.386	–	–	–	–	–	0.505	0.458	0.378	–	0.37	1.03	0.82	0.843	0.794
NCI-H1666	1.06	1.05	1.03	0.3	0.231	0.547	0.586	0.665	0.648	0.539	0.711	0.788	0.819	0.695	0.771	1.09	0.777	0.685	0.602
SK-MES-1	0.867	1.04	0.992	0.782	0.162	0.844	0.905	0.87	0.808	0.845	0.683	0.733	0.761	0.762	0.637	0.982	0.89	0.885	0.668
NCI-H1915	1.05	1.1	1.04	0.689	0.0648	0.49	0.463	0.439	–	0.382	0.228	0.257	0.259	0.222	0.26	0.934	0.774	0.552	0.445
SW 1573	0.731	0.835	0.642	0.19	0.096	0.178	0.216	0.188	0.198	0.162	0.44	0.459	0.542	0.483	0.383	0.788	0.768	0.601	0.57
